Results published in ChEMBL document CHEMBL5724914, “Linking interpersonal differences in gut microbiota composition and drug biotransformation activity” (2024).

Settings: human gut metagenome, 24 h, 2 µM
Note: call rule not given here.

Structure (SMILES)	Bacterial Biotransformation
CC(C)[C@H]1CC[C@H](C(=O)N[C@H](Cc2ccccc2)C(=O)O)CC1 [NATEGLINIDE]	Compound metabolized
CN(C)C(=O)Oc1cccc([N+](C)(C)C)c1.[Br-] [NEOSTIGMINE BROMIDE]	Compound NOT metabolized

Settings: human gut metagenome, 24 h, 2 µM
Remark: another data set of the same source

Structure (SMILES)	Bacterial Biotransformation
CC(C)[C@H]1CC[C@H](C(=O)N[C@H](Cc2ccccc2)C(=O)O)CC1 [NATEGLINIDE]	Compound metabolized
CN(C)C(=O)Oc1cccc([N+](C)(C)C)c1.[Br-] [NEOSTIGMINE BROMIDE]	Compound NOT metabolized

Assay: (§1) The drug is tested on Z-025 corresponding to rabbit gut metagenome with ENA study accession number: PRJEB37062 and ENA sample accession number: ERS12561824 for biotransformation under anaerobic condition. The drug concentrations were measured over 9 timepoints collected between 0 and 24 hours of incubation by liquid-chromatography-coupled mass spectrometry (LC–MS)
Settings: 2 µM

Structure (SMILES)	Bacterial Biotransformation
CC(C)[C@H]1CC[C@H](C(=O)N[C@H](Cc2ccccc2)C(=O)O)CC1 [NATEGLINIDE]	Compound metabolized
CN(C)C(=O)Oc1cccc([N+](C)(C)C)c1.[Br-] [NEOSTIGMINE BROMIDE]	Compound NOT metabolized

Settings: human gut metagenome, 24 h, 2 µM
Remark: another data set of the same source

Structure (SMILES)	Bacterial Biotransformation
CC(C)[C@H]1CC[C@H](C(=O)N[C@H](Cc2ccccc2)C(=O)O)CC1 [NATEGLINIDE]	Compound metabolized
CN(C)C(=O)Oc1cccc([N+](C)(C)C)c1.[Br-] [NEOSTIGMINE BROMIDE]	Compound NOT metabolized

Assay: as §1, with “Z-006” for “Z-025”, “mouse” for “rabbit”, “ERS12561806” for “ERS12561824”
Settings: 2 µM

Structure (SMILES)	Bacterial Biotransformation
CC(C)[C@H]1CC[C@H](C(=O)N[C@H](Cc2ccccc2)C(=O)O)CC1 [NATEGLINIDE]	Compound NOT metabolized
CN(C)C(=O)Oc1cccc([N+](C)(C)C)c1.[Br-] [NEOSTIGMINE BROMIDE]	Compound NOT metabolized

Assay: as §1, with “Z-009” for “Z-025”, “pig” for “rabbit”, “ERS12561809” for “ERS12561824”
Settings: 2 µM

Structure (SMILES)	Bacterial Biotransformation
CC(C)[C@H]1CC[C@H](C(=O)N[C@H](Cc2ccccc2)C(=O)O)CC1 [NATEGLINIDE]	Compound metabolized
CN(C)C(=O)Oc1cccc([N+](C)(C)C)c1.[Br-] [NEOSTIGMINE BROMIDE]	Compound NOT metabolized

Settings: human gut metagenome, 24 h, 2 µM
Remark: another data set of the same source

Structure (SMILES)	Bacterial Biotransformation
CC(C)[C@H]1CC[C@H](C(=O)N[C@H](Cc2ccccc2)C(=O)O)CC1 [NATEGLINIDE]	Compound metabolized
CN(C)C(=O)Oc1cccc([N+](C)(C)C)c1.[Br-] [NEOSTIGMINE BROMIDE]	Compound NOT metabolized

Assay: as §1, with “Z-007” for “Z-025”, “rat” for “rabbit”, “ERS12561807” for “ERS12561824”
Settings: 2 µM

Structure (SMILES)	Bacterial Biotransformation
CC(C)[C@H]1CC[C@H](C(=O)N[C@H](Cc2ccccc2)C(=O)O)CC1 [NATEGLINIDE]	Compound NOT metabolized
CN(C)C(=O)Oc1cccc([N+](C)(C)C)c1.[Br-] [NEOSTIGMINE BROMIDE]	Compound NOT metabolized

Assay: as §1, with “WLS-073” for “Z-025”, “human” for “rabbit”, “ERS12561749” for “ERS12561824”
Settings: 2 µM

Structure (SMILES)	Bacterial Biotransformation
CC(C)[C@H]1CC[C@H](C(=O)N[C@H](Cc2ccccc2)C(=O)O)CC1 [NATEGLINIDE]	Compound metabolized
CN(C)C(=O)Oc1cccc([N+](C)(C)C)c1.[Br-] [NEOSTIGMINE BROMIDE]	Compound NOT metabolized

Assay: as §1, with “WLS-052” for “Z-025”, “human” for “rabbit”, “ERS12561747” for “ERS12561824”
Settings: 2 µM

Structure (SMILES)	Bacterial Biotransformation
CC(C)[C@H]1CC[C@H](C(=O)N[C@H](Cc2ccccc2)C(=O)O)CC1 [NATEGLINIDE]	Compound metabolized
CN(C)C(=O)Oc1cccc([N+](C)(C)C)c1.[Br-] [NEOSTIGMINE BROMIDE]	Compound NOT metabolized

Assay: as §1, with “Z-022” for “Z-025”, “mouse” for “rabbit”, “ERS12561821” for “ERS12561824”
Settings: 2 µM

Structure (SMILES)	Bacterial Biotransformation
CC(C)[C@H]1CC[C@H](C(=O)N[C@H](Cc2ccccc2)C(=O)O)CC1 [NATEGLINIDE]	Compound NOT metabolized
CN(C)C(=O)Oc1cccc([N+](C)(C)C)c1.[Br-] [NEOSTIGMINE BROMIDE]	Compound NOT metabolized

Assay: as §1, with “Z-023” for “Z-025”, “to” for “to rabbit gut”, “ERS12561822” for “ERS12561824”
Settings: 2 µM

Structure (SMILES)	Bacterial Biotransformation
CC(C)[C@H]1CC[C@H](C(=O)N[C@H](Cc2ccccc2)C(=O)O)CC1 [NATEGLINIDE]	Compound metabolized
CN(C)C(=O)Oc1cccc([N+](C)(C)C)c1.[Br-] [NEOSTIGMINE BROMIDE]	Compound NOT metabolized

Assay: as §1, with “WLS-350” for “Z-025”, “human” for “rabbit”, “ERS12561789” for “ERS12561824”
Settings: 2 µM

Structure (SMILES)	Bacterial Biotransformation
CC(C)[C@H]1CC[C@H](C(=O)N[C@H](Cc2ccccc2)C(=O)O)CC1 [NATEGLINIDE]	Compound metabolized
CN(C)C(=O)Oc1cccc([N+](C)(C)C)c1.[Br-] [NEOSTIGMINE BROMIDE]	Compound NOT metabolized

Settings: human gut metagenome, 24 h, 2 µM
Remark: another data set of the same source

Structure (SMILES)	Bacterial Biotransformation
CC(C)[C@H]1CC[C@H](C(=O)N[C@H](Cc2ccccc2)C(=O)O)CC1 [NATEGLINIDE]	Compound metabolized
CN(C)C(=O)Oc1cccc([N+](C)(C)C)c1.[Br-] [NEOSTIGMINE BROMIDE]	Compound NOT metabolized

Assay: as §1, with “Z-004” for “Z-025”, “to” for “to rabbit gut”, “ERS12561804” for “ERS12561824”
Settings: 2 µM

Structure (SMILES)	Bacterial Biotransformation
CC(C)[C@H]1CC[C@H](C(=O)N[C@H](Cc2ccccc2)C(=O)O)CC1 [NATEGLINIDE]	Compound NOT metabolized
CN(C)C(=O)Oc1cccc([N+](C)(C)C)c1.[Br-] [NEOSTIGMINE BROMIDE]	Compound NOT metabolized

Settings: human gut metagenome, 24 h, 2 µM
Remark: another data set of the same source

Structure (SMILES)	Bacterial Biotransformation
CC(C)[C@H]1CC[C@H](C(=O)N[C@H](Cc2ccccc2)C(=O)O)CC1 [NATEGLINIDE]	Compound metabolized
CN(C)C(=O)Oc1cccc([N+](C)(C)C)c1.[Br-] [NEOSTIGMINE BROMIDE]	Compound NOT metabolized

Settings: human gut metagenome, 24 h, 2 µM
Remark: another data set of the same source

Structure (SMILES)	Bacterial Biotransformation
CC(C)[C@H]1CC[C@H](C(=O)N[C@H](Cc2ccccc2)C(=O)O)CC1 [NATEGLINIDE]	Compound metabolized
CN(C)C(=O)Oc1cccc([N+](C)(C)C)c1.[Br-] [NEOSTIGMINE BROMIDE]	Compound NOT metabolized

Assay: as §1, with “Z-013” for “Z-025”, “ERS12561813” for “ERS12561824”
Settings: 2 µM

Structure (SMILES)	Bacterial Biotransformation
CC(C)[C@H]1CC[C@H](C(=O)N[C@H](Cc2ccccc2)C(=O)O)CC1 [NATEGLINIDE]	Compound metabolized
CN(C)C(=O)Oc1cccc([N+](C)(C)C)c1.[Br-] [NEOSTIGMINE BROMIDE]	Compound NOT metabolized

Settings: human gut metagenome, 24 h, 2 µM
Remark: another data set of the same source

Structure (SMILES)	Bacterial Biotransformation
CC(C)[C@H]1CC[C@H](C(=O)N[C@H](Cc2ccccc2)C(=O)O)CC1 [NATEGLINIDE]	Compound metabolized
CN(C)C(=O)Oc1cccc([N+](C)(C)C)c1.[Br-] [NEOSTIGMINE BROMIDE]	Compound NOT metabolized

Assay: as §1, with “WLS-010” for “Z-025”, “human” for “rabbit”, “ERS12561743” for “ERS12561824”
Settings: 2 µM

Structure (SMILES)	Bacterial Biotransformation
CC(C)[C@H]1CC[C@H](C(=O)N[C@H](Cc2ccccc2)C(=O)O)CC1 [NATEGLINIDE]	Compound metabolized
CN(C)C(=O)Oc1cccc([N+](C)(C)C)c1.[Br-] [NEOSTIGMINE BROMIDE]	Compound NOT metabolized
